How the values were obtained:
TRPM5 = molecular target: T1, TRPM5 (Homo sapiens, UniProt Q9NZQ8); assay: TRPM5 inhibition (FLIPR Membrane Potential Assay); assay type: cell-based
T1 sequence (Q9NZQ8 1-1165): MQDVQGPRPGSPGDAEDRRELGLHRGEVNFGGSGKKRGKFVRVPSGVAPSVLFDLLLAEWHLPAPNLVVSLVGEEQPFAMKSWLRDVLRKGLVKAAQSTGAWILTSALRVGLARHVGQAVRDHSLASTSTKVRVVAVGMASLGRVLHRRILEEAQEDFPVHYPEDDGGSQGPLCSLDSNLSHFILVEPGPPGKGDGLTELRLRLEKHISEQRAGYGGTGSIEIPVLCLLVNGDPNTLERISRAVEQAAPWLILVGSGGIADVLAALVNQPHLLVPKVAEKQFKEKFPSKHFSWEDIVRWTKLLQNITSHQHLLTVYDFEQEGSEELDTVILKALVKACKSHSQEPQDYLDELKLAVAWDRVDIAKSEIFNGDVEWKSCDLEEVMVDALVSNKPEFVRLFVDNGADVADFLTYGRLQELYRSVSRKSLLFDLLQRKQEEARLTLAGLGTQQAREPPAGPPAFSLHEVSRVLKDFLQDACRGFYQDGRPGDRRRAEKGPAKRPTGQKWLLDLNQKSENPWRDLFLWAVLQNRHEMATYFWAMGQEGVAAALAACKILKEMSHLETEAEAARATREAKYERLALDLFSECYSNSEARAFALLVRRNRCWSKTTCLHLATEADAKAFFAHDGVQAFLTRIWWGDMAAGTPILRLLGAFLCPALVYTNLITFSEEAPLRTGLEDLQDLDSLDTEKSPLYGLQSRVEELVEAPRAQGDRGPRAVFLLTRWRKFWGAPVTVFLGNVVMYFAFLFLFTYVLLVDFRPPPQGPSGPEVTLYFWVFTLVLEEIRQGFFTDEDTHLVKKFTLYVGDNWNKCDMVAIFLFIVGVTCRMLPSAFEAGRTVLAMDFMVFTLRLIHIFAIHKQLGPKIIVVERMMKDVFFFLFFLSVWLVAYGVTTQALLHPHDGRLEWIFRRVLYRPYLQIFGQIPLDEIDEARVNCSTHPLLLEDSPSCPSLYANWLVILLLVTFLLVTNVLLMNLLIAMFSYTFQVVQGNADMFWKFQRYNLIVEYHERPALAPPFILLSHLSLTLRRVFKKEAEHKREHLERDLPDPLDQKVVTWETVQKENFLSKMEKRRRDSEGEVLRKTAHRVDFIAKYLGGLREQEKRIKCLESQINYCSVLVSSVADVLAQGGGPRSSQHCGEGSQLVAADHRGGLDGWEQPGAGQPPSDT

Beta-TC-6 cells = assay: Insulin release enhancement in Beta-TC-6 cells (insulin ELISA); assay type: cell-based, mouse; settings: for Percent Enhancement of Insulin Secretion (10 μM): compound at 10 μM; for glucose dependence of stimulation of insulin release: varying glucose concentration, FIG. 3 and FIG. 7
Experimental: Beta-TC-6 cells are an insulin-secreting cell line derived from transgenic mice expressing the large T-antigen of simian virus 40 (SV40) in pancreatic beta-cells as described by Poitout et al., Diabetes, 44:306-313 (1995). The cell line was obtained from ATCC cell bank CAT# CRL-11506 and grown in Dulbecco's Modified Eagle's Medium (DMEM) with 15% fetal bovine serum (FBS), 4 mM glutamine, 4.5 mM glucose 1500 mg/L sodium bicarbonate and 1× penn/strep antibiotic mix in a 37° C. incubator with 5% CO2. Cultures were routinely split 1:2 twice a week with the aid of trypsin.
On the day before the assay 0.1×10^6 Beta-TC-6 cells were plated into each well of 96 well plates, and the cells cultured overnight in growth media.
On the next day, growth media was removed from the plate and the monolayers rinsed with phosphate buffered saline (PBS) and pre-incubated 30 mins at 37° C. in Krebs-Ringer Bicarbonate Buffer (KRBB) consisting of 118.5 mM NaCl, 2.54 mM CaCl2, 1.19 mM KH2PO4, 4.74 mM KCl, 25 mM NaHCO3, 1.19 mM MgSO4, 10 mM HEPES buffer and 0.1% bovine serum albumin at pH 7.4. This buffer was removed and replaced with 100 μL of the same buffer containing various insulin release modulators: including various concentrations of glucose up to 12 mM and compounds up to 100 μM. Compounds stock solutions, e.g. 10-20 mM, were diluted in DMSO. Final DMSO concentrations in incubation buffer were 0.5% or less. Vehicle controls were included. Static incubations were then performed for 2 h at 37° C. The entire incubation volume was collected after the 2 h incubation for insulin assay.
ELISA Protocol for insulin determinations. The following protocol was used for doing ELISA using the Rat/Mouse Insulin ELISA Kit from Linco Research, Inc., CAT#EZRMI-13K and Amplex® Red Hydrogen Peroxide/Peroxidase Assay Kit, CAT#A22188, and Amplex® Red reagent (10-acetyl-3,7-dihydroxyphenoxazine) CAT#A12222.
All reagents were Pre-warmed to room temperature before setting up experiment.
1. Dilute the 10× washing buffer into 1× washing buffer. 50 mL+450 mL de-ionized water. Do 1:10 dilution to the cell culture supernatant (Beta-TC-6 cell incubation).
2. Use one column (8 wells) wells for standard samples and QC1 and QC2, typically 0 and 5 ng/mL of insulin. On some plates full standard curves for insulin obtained as shown below.
3. Cover the unused wells well. Wash each well 3 times with 300 μL of 1× washing buffer each time. (2 minutes each washing step on the shaker.) Decant Wash Buffer and remove the residual amount from all wells by inverting the plate and tapping it smartly onto absorbent towels several times.
4. Add 20 μL Assay Buffer into that blank well and 10 μL into those wells for standards and samples.
5. Add 10 μL rat insulin standards and samples to the appropriate wells.
6. Add 80 μL Detection Antibody to all wells. Cover the plate and incubate at room temperature for 2 hours.
7. Tear off the plate cover and decant solutions from the plate. Tap to remove residual solutions in well.
8. Wash well 3 times with diluted wash buffer 300 μL per well per wash (2 minutes each washing step on the shaker). Tap to remove residual solutions as before.
9. Add 100 μL Enzyme Solution to each well. Cover plate with sealer and incubate with moderate shaking at room temperature for 30 min on the microtiter plate shaker.
10. Remove sealer, decant solutions from the plate and tap plate to remove the residual fluid.
11. Wash wells 6 times with diluted Wash Buffer, 300 μL per well per wash. Decant and tap after each wash to remove residual buffer.
12. Prepare 5 mL working solution of […] Amolex Red reagent containing 2.0 mM H2O2. 4.45 mL of 1× Reaction buffer+50 μL 10 mM Amplex Reagent+500 μL 20 mM H2O2.
13. Add 100 μL of the Amplex Red reagent/H2O2 to each well.
14. Incubate the reactions. Incubate at room temperature for 30 minutes, protected from light (using foil to wrap the plate). […]

[1] = test system: calcium-activated current in Beta TC6 cells; assay: Whole-cell electrophysiology of calcium-activated current in Beta TC6 cells; assay type: cell-based, mouse; settings: pulsed doses, current versus time, FIG. 13
Experimental: Whole-cell recordings of TRP channel currents were obtained from acutely trypsinized beta TC-6 cells and TRPM5-expressing HEK cells. The bath solution was Hank's Balanced Salt Solution, composed of (mM); 1.2 CaCl2, 0.5 MgCl2-6H2O, 0.4 MgSO4.7H2O, 5.3 KCl, 0.4 KH2PO4, 137.9 NaCl, 0.3 Na2HPO4.7H2O, and 5.5 D-Glucose, with 20 mM HEPES (Invitrogen), pH 7.4 (NaOH). The internal pipette solution contained, in mM: 135 glutamic acid, 8 NaCl, 9 CaCl2, 10 HEPES and 10 EGTA, pH 7.2 (CsOH) (Sigma). Calculated concentration of free calcium in internal solution was 1.5 μM (http://www.stanford.edu/˜cpatton/webmaxc/webmaxcS.htm). Recording pipettes were pulled using a Flaming/Brown Micropipette Puller (Sutter Instruments), from fire-polished borosilicate glass, to approximately 2 MΩ.
Voltage clamp recordings were obtained in whole cell mode using MultiClamp 700B amplifier and Digidata 1322A converter running on Clampex 9.2 software (Axon Instruments). Recordings were performed at room temperature. The recording protocol consisted of a ramp from −80 mV potential to +80 mV, followed by a step to −80 mV. Peak current was measured at three different voltages: −80 mV, after ramping to +80 mV, then following a return to −80 mV. Series resistance was automatically compensated immediately after the break-in, and the resulting capacitance measurements were used for current density calculations. […]

[2] = compared to glucose-dependent insulin production

COc1ccc(/C=N/NC(=O)COc2cccc(C)c2)cc1OC [Example 8, (E)-N′-(3,4-Dimethoxybenzylidene)-2-(m-tolyloxy)acetohydrazide]
IC50 (TRPM5): 3000 nM
Percent Enhancement of Insulin Secretion (10 μM) (Beta-TC-6 cells; [2]): 39%

CCCCNC(=O)NS(=O)(=O)c1ccc(C)cc1 [Tolbutamide, tolbutamide, reference compound]
Percent Enhancement of Insulin Secretion (Beta-TC-6 cells; tolbutamide tested at 30 μM, compared to glucose-dependent insulin production): 228%
glucose dependence of stimulation of insulin release (Beta-TC-6 cells): not sensitive to glucose levels

COc1ccc(/C=N/NC(=O)CSc2cc(C)c3cccc(C)c3n2)cc1OC [Example 24, (4,8-Dimethylquinolin-2-ylsulfanyl)acetic acid (3,4-dimethoxybenzylidene)hydrazide]
IC50 (TRPM5): 400 nM
Percent Enhancement of Insulin Secretion (10 μM) (Beta-TC-6 cells; [2]): 207%

COc1ccc(/C=N/NC(=O)C2CC2c2ccccc2)cc1OC (centres unmarked) [Example 4, (E)-N′-(3,4-Dimethoxybenzylidene)-2-phenylcyclopropanecarbohydrazide]
IC50 (TRPM5): 600 nM
effect on insulin secretion in combination with tolbutamide (Beta-TC-6 cells; FIG. 6): additive effects
Percent Enhancement of Insulin Secretion (10 μM) (Beta-TC-6 cells; [2]): 111%
glucose dependence of stimulation of insulin release (Beta-TC-6 cells): increases insulin secretion in a glucose-dependent manner
inhibition of calcium-activated current [1]: inhibition of the current

Reference: US8193168B2, “Use of a TRPM5 inhibitor to regulate insulin and GLP-1 release” (Redpoint Bio Corporation, priority 2007, dated 2012)
